Read-outs that look alike come from different tables or passages of the source.
Key:
LasB [1] = assay type: in vivo, mouse; settings: compared to the vehicle group; 4b 10 mg/kg TID, levofloxacin 25 mg/kg
[2] = Metabolic stability in mouse liver S9 fraction; assay type: in vitro ADME
in vivo = settings: mice, nebulization 10 mg/kg; for Cmax / Tmax: 10 mg/kg
Description: Up to 5 compounds were dosed per cassette.
anesthetized using ketamine 100 mg/kg and xylazine 10 mg/kg intraperitoneally.
time point) were euthanized at t= 0.5, 2 and 5 h post administration.
10 mg/kg using a Kent Scientific Aeroneb® nebulizer.
Blood was collected from the heart.
blood was collected into Eppendorf tubes coated with 0.5 M EDTA and immediately spun down
at 13,000 rpm for 10 min at 4 °C. The plasma was transferred into a new Eppendorf tube and then
stored at –80 °C until analysis. Then, a broncheoalveolar lavage was conducted using isotonic
sodium chloride solut ion. Lung, kidneys, and liver were aseptically removed and homogenized
using a Polytron tissue homogenizer (Kinematica) in isotonic sodium chloride solution.
samples were aliquoted into Eppendorf tubes and stored at –80 °C until analysis.
spontaneous urine was also collected. Bioanalytical sample preparation.
an AB Sciex QTrap6500+ mass spectrometer. First, a calibration curve was prepared by spiking
Caffeine was used as an internal standard.
min at 2,000 rpm on an Eppendorf MixMate® vortex mixer.
caffeine as internal standard for 5 min at 2000 rpm on an Eppendorf MixMate® vortex mixer.
Then samples (plasma and urine) were spun down at 1 3,000 rpm for 5 min. Supernatants were transferred to standard HPLC -glass vials.
tissue sample (calibration samples, QCs or PK samples) were extracted with 50 µL of methanol
and 1 µL caffeine (concent ration 1 µg/mL in methanol) for 5 min at 800 rpm on an Eppendorf MixMate® vortex mixer. Then samples (BALF, liver, kidney, lung) were spun down at 4,000 rpm
for 40 min at 4 °C. Supernatants were transferred to 96well V -bottom plates (Greiner).
conditions were as follows: column: Agilent Zorbax Eclipse Plus C18, 50x2.1 mm, 1.8 µm;
temperature: 30 °C; injection volume: 5 µL; flow rate: 700 µL/min; solvent A: water + 0.1%
Urea was used to enable calculation of
epithelial lining fluid (ELF) concentrations. Peak areas of each sample and of the corresponding
internal standard were analyzed using MultiQuant 3.0 software (AB Sciex).
respective sample were normalized to the internal standard peak area.
compound were used for qualification.
curve. The accuracy of the calibration curve was determined using QCs independently prepared
on different days. PK parameters were determined using a non-compartmental analysis with

zebrafish embryos = assay: Zebrafish embryo toxicity
Description: Zebrafish embryo toxicity. The experiment was performed according to a procedure described
in the literature55 with minor modifications using zebrafish embryos of the AB wild-type line at 1
day post fertilization (dpf).
Zebrafish embryo toxicity.

HepG2 = settings: human, 48 h, 100 µM
Description: Culturing of HepG2, A549 and HEK293 cells. The human hepatocellular carcinoma cell line HepG2, the lung adenocarcinoma cell line A549 and Human Embryonic (HEK) 293 cells were cultured in Dulbecco's Modified Eagle Medium (DMEM), containing 10% Fetal Bovine Serum
(FBS) and 1% penicillin-streptomycin mixture. Cells were maintained according to standard cell
Cytotoxicity assay. An MTT-based assay was employed to evaluate the viability of HepG2,
HEK293 and A549 cells after challenge with selected LasB inhibitors and performed as described

3D lung organoids = assay: Lung organoid assay; assay type: cell-based, human
[3] = Plasma stability, minipig; assay type: in vitro ADME; settings: Göttingen, pooled plasma, species profiling, read-out: Plasma T1/2 Minipig (Göttingen)
[4] = Microsomal stability, minipig liver microsomes; assay type: in vitro ADME; settings: Göttingen, pooled liver microsomes
MMP-1 = target: T1, MMP-1 (Homo sapiens, UniProt P03956); assay: MMP-1 inhibition assay; assay type: biochemical; settings: read-out: % inhibition MMP-1
T1 construct: purchased AnaSpec (Fremont, CA, USA)
T1 sequence (P03956 100-469): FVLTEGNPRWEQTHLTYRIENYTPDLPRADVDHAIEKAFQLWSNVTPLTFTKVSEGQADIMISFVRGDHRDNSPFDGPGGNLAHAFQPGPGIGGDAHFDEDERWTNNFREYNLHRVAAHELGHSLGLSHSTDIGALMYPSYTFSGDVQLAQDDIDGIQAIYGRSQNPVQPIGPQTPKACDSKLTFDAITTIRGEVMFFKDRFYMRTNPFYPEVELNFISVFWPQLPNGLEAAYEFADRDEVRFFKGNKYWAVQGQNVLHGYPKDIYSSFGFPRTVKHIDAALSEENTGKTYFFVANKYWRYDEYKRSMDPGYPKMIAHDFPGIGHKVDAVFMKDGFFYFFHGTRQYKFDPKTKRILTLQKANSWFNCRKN

[5] = system: A549 cells treated with P. aeruginosa PAO1 and PA14 supernatants; assay: A549 cells challenged with P. aeruginosa culture supernatants
Description: Cells were maintained according to standard cell
PA14 csn production. The csn of wt PA14 and ΔlasB PA14 was produced as we previously
Validation of the effect of LasB inhibitors on A549 cells in vitro. The experiment was performed
as described previously.32 The Picrosirius red assay was performed by washing the csn-challenged
cells (± inhibitor) 3x with PBS followed by an incubation with Bouin solution (Sigma) at RT for
20 min. The cells were incubated with 0.1% Picrosirius red dye (ab150681) at RT for 2 h. Then,
they were washed once with 0.01 N HCl, and the matrix was dissolved in 0.01 N NaOH. The
absorption was measured at 570 nm using a PHERAstar plate reader (BMG Labtech). By dividing
the absorbance of each sample by the absorbance of the healthy sample, the relative collagen
quantity was determined. For each condition, the experiment was performed three times. To
determine the rescue of A549 cells treated with 5% wt PA14 csn using our compounds, the LasB
inhibitors were used at 2, 0.5, 0.1 and 0.05 µM. The compounds were incubated in F12K medium,
Cell detachment was then evaluated, and a Trypan Blue cell
cells/well were seeded into a flat bottom 96-well plate (Corning™ Costar™) and incubated at 37
were tested against 10% (v/v) P. aeruginosa PAO1 csn diluted in DMEM starting from 10 µM
and 20 µM, respectively. Compound was initially dissolved in DMSO, and a low final assay
concentration of 0.5% (v/v) was applied to minimize the proteolytic effect of DMSO on the
bacterial culture supernatant. In addition, cells were challenged with 10% (v/v) of ΔlasB PAO1 to

[6] = Microsomal stability, mouse liver microsomes; assay type: in vitro ADME; settings: C57BL6, mouse, pooled liver microsomes
ColH-PD = ColH-PD (Hathewaya histolytica, UniProt Q46085); assay: biochemical; assay type: biochemical, Clostridium histolyticum; settings: read-out: % inhibition ColH-PD @1 µM
Sequence of ColH-PD (Q46085 331-721 limits assumed): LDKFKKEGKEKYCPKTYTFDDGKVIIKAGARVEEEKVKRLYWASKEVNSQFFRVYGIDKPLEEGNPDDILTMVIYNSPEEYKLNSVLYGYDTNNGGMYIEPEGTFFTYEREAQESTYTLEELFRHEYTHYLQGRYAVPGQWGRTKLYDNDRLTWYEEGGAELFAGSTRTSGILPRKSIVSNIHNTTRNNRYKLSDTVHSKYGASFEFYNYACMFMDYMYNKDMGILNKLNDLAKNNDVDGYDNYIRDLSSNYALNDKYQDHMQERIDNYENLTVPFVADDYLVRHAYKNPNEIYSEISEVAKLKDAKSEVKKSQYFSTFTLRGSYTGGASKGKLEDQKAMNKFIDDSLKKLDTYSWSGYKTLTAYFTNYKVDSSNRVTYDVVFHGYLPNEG

Plasma stability, rat = assay type: in vitro ADME; settings: Wistar, pooled plasma, species profiling, read-out: Plasma T1/2 Rat (Wistar)
[7] = Metabolic stability in human liver S9 fraction; assay type: in vitro ADME
[8] = system: Galleria mellonella larvae infected with wt PA14; assay: G. mellonella infection model
[9] = Microsomal stability, rat liver microsomes; assay type: in vitro ADME; settings: Wistar, pooled liver microsomes
P. aeruginosa PA14 = assay: Bacterial growth inhibition assay; assay type: cell-based, Pseudomonas aeruginosa
Description: Bacterial growth inhibition assay. Assays regarding the determination of the MIC were
performed as described recently for P. aeruginosa PA14.58

MMP-2 = target: T2, MMP-2 (Homo sapiens, UniProt P08253); assay: MMP-2 inhibition assay; assay type: biochemical; settings: read-out: % inhibition MMP-2
T2 construct: purchased AnaSpec (Fremont, CA, USA)
T2 sequence (P08253 110-660): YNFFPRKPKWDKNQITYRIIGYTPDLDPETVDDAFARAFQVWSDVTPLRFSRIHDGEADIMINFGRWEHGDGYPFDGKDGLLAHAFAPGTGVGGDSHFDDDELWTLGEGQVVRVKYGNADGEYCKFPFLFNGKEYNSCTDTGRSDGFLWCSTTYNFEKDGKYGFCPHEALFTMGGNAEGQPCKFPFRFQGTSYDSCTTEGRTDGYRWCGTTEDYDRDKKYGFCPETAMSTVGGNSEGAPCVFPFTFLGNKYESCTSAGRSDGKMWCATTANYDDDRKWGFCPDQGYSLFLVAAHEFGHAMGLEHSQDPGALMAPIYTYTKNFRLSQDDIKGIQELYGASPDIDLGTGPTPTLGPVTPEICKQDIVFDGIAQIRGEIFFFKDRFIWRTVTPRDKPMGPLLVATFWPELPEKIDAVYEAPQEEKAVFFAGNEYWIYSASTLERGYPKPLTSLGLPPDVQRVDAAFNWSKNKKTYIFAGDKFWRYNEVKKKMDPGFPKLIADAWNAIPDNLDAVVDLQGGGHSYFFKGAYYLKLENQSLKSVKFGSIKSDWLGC

LasB [10] = target: T3, LasB (Pseudomonas aeruginosa, UniProt Q02RJ6); assay: biochemical; assay type: biochemical
T3 construct: made in house
T3 sequence (Q02RJ6 198-498): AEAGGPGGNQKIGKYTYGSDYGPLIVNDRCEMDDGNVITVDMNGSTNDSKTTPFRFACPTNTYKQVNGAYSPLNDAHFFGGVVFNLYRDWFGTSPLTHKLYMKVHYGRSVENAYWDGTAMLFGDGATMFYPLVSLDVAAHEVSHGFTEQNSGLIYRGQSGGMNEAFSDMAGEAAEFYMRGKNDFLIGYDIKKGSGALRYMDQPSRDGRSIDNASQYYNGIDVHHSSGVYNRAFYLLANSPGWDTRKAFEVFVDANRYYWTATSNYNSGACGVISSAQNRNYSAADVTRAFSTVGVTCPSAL

MMP-3 = target: T4, MMP-3 (Homo sapiens, UniProt P08254); assay: MMP-3 inhibition assay; assay type: biochemical; settings: read-out: % inhibition MMP-3
T4 construct: purchased AnaSpec (Fremont, CA, USA)
T4 sequence (P08254 100-477): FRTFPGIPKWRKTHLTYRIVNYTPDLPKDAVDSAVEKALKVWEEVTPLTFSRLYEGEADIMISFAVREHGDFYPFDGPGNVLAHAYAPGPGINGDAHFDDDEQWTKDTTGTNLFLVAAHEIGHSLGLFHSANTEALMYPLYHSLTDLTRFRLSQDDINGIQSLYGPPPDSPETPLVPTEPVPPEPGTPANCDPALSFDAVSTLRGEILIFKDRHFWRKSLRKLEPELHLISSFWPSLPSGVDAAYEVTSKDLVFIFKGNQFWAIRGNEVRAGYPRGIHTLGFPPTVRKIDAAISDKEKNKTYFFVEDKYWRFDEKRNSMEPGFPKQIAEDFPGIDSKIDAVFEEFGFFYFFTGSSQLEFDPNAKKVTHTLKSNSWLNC

TACE = target: T5, TACE (Homo sapiens, UniProt P78536); assay: TACE inhibitor screening kit; assay type: biochemical; settings: read-out: % inhibition TACE
T5 construct: purchased Sigma-Aldrich (Saint Louis, MO)
T5 sequence (P78536 215-824): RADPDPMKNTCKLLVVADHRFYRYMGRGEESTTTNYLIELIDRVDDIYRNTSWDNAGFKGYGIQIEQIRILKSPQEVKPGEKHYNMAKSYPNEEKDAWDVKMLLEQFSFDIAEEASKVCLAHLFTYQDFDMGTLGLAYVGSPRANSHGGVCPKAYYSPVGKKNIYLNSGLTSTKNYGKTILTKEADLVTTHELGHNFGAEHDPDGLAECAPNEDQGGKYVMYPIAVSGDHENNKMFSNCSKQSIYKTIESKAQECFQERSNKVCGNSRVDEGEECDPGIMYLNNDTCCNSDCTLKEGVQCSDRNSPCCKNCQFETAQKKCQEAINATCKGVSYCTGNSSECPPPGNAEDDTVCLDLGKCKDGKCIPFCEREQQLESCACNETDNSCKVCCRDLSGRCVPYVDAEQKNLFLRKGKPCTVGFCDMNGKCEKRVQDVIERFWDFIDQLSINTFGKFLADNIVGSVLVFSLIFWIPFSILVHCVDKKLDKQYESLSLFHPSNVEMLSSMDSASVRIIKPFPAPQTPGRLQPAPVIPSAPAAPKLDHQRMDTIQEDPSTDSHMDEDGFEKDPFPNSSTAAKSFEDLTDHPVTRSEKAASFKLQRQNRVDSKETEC

HEK293 = settings: human, 48 h, 100 µM

## CC(C)CC(C(=O)Nc1ccc(C(F)(F)F)cc1)P(=O)(O)O (stereo not drawn) [Compound 4b]
LasB [1]
  LasB protein levels in blood: strong reduction
[2]
  microsomal CLint at 1 μM: < 5.8 µL/min/mg
In vivo; male, CD-1, mouse, ELF/plasma, inhaled, read-out: ELF/plasma ratio
  Kp: 6.12
In vivo; male, CD-1, mouse, epithelial lining fluid (ELF), inhaled or intranasal, read-out: Cmax ELF
  Cmax: 19900 ± 14000 ng/mL
In vivo; male, CD-1, mouse, epithelial lining fluid (ELF), inhaled or intranasal, read-out: Tmax ELF
  Tmax: 0.58 ± 0.4 h
In vivo; male, CD-1, mouse, epithelial lining fluid (ELF), inhaled or intranasal, read-out: AUC 0-t ELF
  AUC(0-t): 49700 ± 16200 ng·h/mL
In vivo; male, CD-1, mouse, inhaled or intranasal, plasma
  CL/F: 20.7 ± 2 mL/min/kg
In vivo; male, CD-1, mouse, lung, inhaled or intranasal, read-out: Tmax lung
  Tmax: 0.33 ± 0.1 h
In vivo; male, CD-1, mouse, plasma, inhaled or intranasal, read-out: Cmax plasma
  Cmax: 633 ± 59 ng/mL
In vivo; male, CD-1, mouse, plasma, inhaled or intranasal, read-out: Tmax plasma
  Tmax: 4 ± 3.5 h
In vivo; male, CD-1, mouse, plasma, inhaled or intranasal
  MRT: 6.8 ± 0.3 h
In vivo; male, CD-1, mouse, plasma, inhaled or intranasal, read-out: AUC 0-t plasma
  AUC(0-t): 8130 ng·h/mL
In vivo; male, CD-1, mouse, plasma, inhaled or intranasal, read-out: t1/2 plasma (converted)
  half-life: 4 ± 0.3 h
In vivo
  AUC 0-t lung: 249.0 ± 72.9 ng·h/g
  Cmax lung: 78.4 ± 15.9 ng/g
Zebrafish embryos; 12.5 µM
  Survival rate: 100%
Zebrafish embryos; 25 µM
  Survival rate: 100%
Zebrafish embryos; 25 µM, 5 dpf
  Screening observations: 1 nsb
Zebrafish embryos; 50 µM
  Survival rate: 100%
Zebrafish embryos; 50 µM, 5 dpf
  Screening observations: 2 nsb
Zebrafish embryos; 100 μM
  Survival rate: 100%
Zebrafish embryos; 100 µM, 3 dpf
  Screening observations: 1 edema
Zebrafish embryos; 100 µM, 4 dpf
  Screening observations: 1 edema
Zebrafish embryos; 100 µM, 5 dpf
  Screening observations: 1 nsb, 1 edema
HepG2
  % growth inhibition HepG2: 18 ± 11%
3D lung organoids; 5% PA14 csn, 48 h, MTT
  viability of lung organoids challenged with 5% PA14 csn: improved in a dose-dependent manner
3D lung organoids; concentrations tested up to 100 μM
  toxic effects on nontreated lung organoids: did not have significant toxic effects
[3]
  half-life: > 4 h
[4]
  microsomal CLint: < 11.6 µL/min/mg
MMP-1
  inhibition at 100 µM: 21 ± 1%
[5]; A549 cells, 15% (v/v) wt PA14 csn, 3.15 μM
  reduction of cleavage of collagen: 20%
[5]; PAO1 or PA14 csn
  LasB-related cytotoxicity in csn-treated A549 cells: dose-dependent reduction of LasB-related cytotoxicity
[6]
  microsomal CLint: < 11.6 µL/min/mg
ColH-PD
  inhibition at 1 µM: 14 ± 8%
Plasma stability, rat
  half-life: > 4 h
[7]
  microsomal CLint at 1 μM: < 5.8 µL/min/mg
[8]; 1 nmol 4b, 10.7 nmol tobramycin, or both, 17% in the wild type
  survival of larvae infected with wt PA14: 33%
[8]; PBS with 4b, tobramycin or combination of both
  survival in the PBS treated groups (not infected): 100%
[9]
  microsomal CLint: < 11.6 µL/min/mg
P. aeruginosa PA14; Pseudomonas aeruginosa, PA14, 100 µM compound concentration, read-out: Percent (%) growth inhibition of P. aeruginosa PA14
  inhibition at 100 µM: < 10%
P. aeruginosa PA14; up to 100 μM
  antibacterial activity: do not possess any antibacterial activity
MMP-2
  inhibition at 100 µM: 25 ± 4%
LasB [10]; FRET-based assay, read-out: LasB IC50
  IC50: 26.3 ± 7.6 nM
LasB [10]; LasB IC50, FRET-based assay
  IC50: ~25 nM
LasB [10]; LasB IC50 in presence of 1% pulmonary surfactant, 1% pulmonary surfactant
  IC50: 76 ± 23 nM
MMP-3
  inhibition at 100 µM: 29 ± 8%
TACE
  inhibition at 100 µM: < 10%
HEK293
  % growth inhibition HEK293: 11 ± 1%

Source: article PMC10755728, “Inhibitors of the Elastase LasB for the Treatment of Pseudomonas aeruginosa Lung Infections” (ACS Central Science, 2023)
